According to ChEMBL document CHEMBL4000236, “Nardonaphthalenones A and B from the roots and rhizomes of Nardostachys chinensis Batal” (Bioorg Med Chem Lett, 2017):
Calls of active or inactive are those of the source. No cut-off for these calls is given here.

Columns and labels:
Type in all cases: cell-based
[1] = biological target: Sodium-dependent serotonin transporter (Homo sapiens) (UniProt P31645); test: Modulation of human SERT expressed in HEK293 cells at 1 uM using APP+ as substrate by fluorescence assay relative to control
Sodium-dependent serotonin transporter (Homo sapiens), sequence (P31645 whole entry, looked up): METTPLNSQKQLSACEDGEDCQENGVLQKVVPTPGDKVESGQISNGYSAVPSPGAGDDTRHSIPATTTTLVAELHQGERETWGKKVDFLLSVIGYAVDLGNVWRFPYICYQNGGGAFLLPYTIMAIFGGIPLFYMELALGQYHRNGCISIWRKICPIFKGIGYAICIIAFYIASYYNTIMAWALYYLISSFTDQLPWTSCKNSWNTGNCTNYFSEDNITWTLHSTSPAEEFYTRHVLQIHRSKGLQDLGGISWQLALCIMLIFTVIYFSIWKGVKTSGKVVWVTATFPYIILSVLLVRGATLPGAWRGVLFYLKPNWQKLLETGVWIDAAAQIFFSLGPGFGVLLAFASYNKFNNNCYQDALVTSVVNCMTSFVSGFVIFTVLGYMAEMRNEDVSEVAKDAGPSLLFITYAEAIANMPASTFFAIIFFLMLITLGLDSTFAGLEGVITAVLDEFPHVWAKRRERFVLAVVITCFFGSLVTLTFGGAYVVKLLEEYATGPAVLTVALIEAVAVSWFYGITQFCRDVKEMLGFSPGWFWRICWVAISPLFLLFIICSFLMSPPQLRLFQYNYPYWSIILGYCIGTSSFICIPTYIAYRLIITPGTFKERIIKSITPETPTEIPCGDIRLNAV

[2] = biological target: Sodium-dependent serotonin transporter (Homo sapiens) (UniProt P31645); test: Modulation of human SERT expressed in HEK293 cells at 10 uM using APP+ as substrate by fluorescence assay relative to control
[3] = biological target: Sodium-dependent serotonin transporter (Homo sapiens) (UniProt P31645); test: Modulation of human SERT expressed in HEK293 cells at 0.1 uM using APP+ as substrate by fluorescence assay relative to control

SMILES	fold change (FC) [1]	fold change (FC) [2]	fold change (FC) [3]	Activity [2]	Activity [1]	Activity [3]
CN1c2ccccc2C(NCCCCCCC(=O)O)c2ccc(Cl)cc2S1(=O)=O (stereo not given)	1.18					
COC(=O)C1=CO[C@@H](O[C@@H]2O[C@H](CO)[C@@H](O)[C@H](O)[C@H]2O)[C@H]2[C@@H](COC(C)=O)CC[C@H]12	1.07	0.989	0.965			
CC(C)CC(=O)O[C@@H]1OC=C(CO[C@@H]2O[C@H](CO)[C@@H](O)[C@H](O)[C@H]2O)C2C[C@H](O)[C@@H](CO)C21 (stereo not given in full)	0.981	0.933	0.975			
CC(=O)OC[C@H]1O[C@@H](OCC2=CO[C@@H](OC(=O)CC(C)C)C3C2C[C@H](O)[C@H]3CO)[C@H](O)[C@H](O)[C@@H]1O (stereo not given in full)				inactive	inactive	inactive
CC(=O)/C=C/C1=C(C)CCCC1(C)C	1.07	1.01	0.989			
COC1=CC(C)(C)c2cc(OC)c(C)cc2C1=O	1	0.942	0.956			
COC(=O)C1=CO[C@@H](O[C@@H]2O[C@H](CO)[C@@H](O)[C@H](O)[C@H]2O)[C@H]2[C@@H](CO)CC[C@H]12				inactive	inactive	inactive
CC(=O)/C=C/C1(O)C(C)(C)CCCC1(C)O (stereo not given)	1.07	1.09	0.934			
COC1=CC(C)(C)c2cc(OC)c(C)c(OC)c2C1=O	1.05	1.05	1.07			
C/C1=C\CC[C@@H](C)CCO[C@@H]2O[C@H](CO[C@@H]3OC[C@](O)(COC1=O)[C@H]3O)[C@@H](O)[C@H](O)[C@H]2O	1.08	1.06	1.04			
CC1=CC(=O)CC(C)(C)[C@@H]1CC[C@@H](C)OC(=O)CC(C)C	1.05	1.07	1.03			
CC(C)CC(=O)OCC1=CO[C@@H](OC(=O)CC(C)C)C2C1CC(=O)[C@H]2C (stereo not given in full)				inactive	inactive	inactive
CC(=O)CC/C=C(C)/C=C/[C@H]1C(C)=CC(=O)CC1(C)C	1.07	1.1	1.06			
C[C@H]1CC[C@@H]2C(C(=O)O)=CO[C@@H](O[C@@H]3O[C@H](CO)[C@@H](O)[C@H](O)[C@H]3O)[C@H]21	1.08	1.07	1.05			
